Molecular target: T1, PDE9 (PDE9A) (Homo sapiens, UniProt O76083)
T1 construct: full-length recombinant human PDE9
Test: PDE-Glo phosphodiesterase luminescence assay with cGMP substrate, recombinant human PDE9A
Format: biochemical

T1 sequence (O76083 whole entry): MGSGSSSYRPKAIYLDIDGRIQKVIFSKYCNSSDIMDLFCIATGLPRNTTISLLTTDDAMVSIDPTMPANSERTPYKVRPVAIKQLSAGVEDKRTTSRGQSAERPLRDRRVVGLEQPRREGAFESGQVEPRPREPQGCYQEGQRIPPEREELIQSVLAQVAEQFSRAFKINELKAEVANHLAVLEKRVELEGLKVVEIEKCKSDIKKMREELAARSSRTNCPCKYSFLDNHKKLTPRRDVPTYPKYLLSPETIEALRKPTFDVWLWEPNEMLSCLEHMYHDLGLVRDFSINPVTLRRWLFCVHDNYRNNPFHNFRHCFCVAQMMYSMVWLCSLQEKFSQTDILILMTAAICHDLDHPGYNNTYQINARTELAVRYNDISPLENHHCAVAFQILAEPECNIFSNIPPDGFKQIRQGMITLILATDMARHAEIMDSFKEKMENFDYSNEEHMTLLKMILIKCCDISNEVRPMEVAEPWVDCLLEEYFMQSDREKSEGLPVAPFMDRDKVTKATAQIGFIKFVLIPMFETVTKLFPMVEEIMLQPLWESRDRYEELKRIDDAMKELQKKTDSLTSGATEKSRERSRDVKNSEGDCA

IC50: 5.35 nM
Compound: CC(C)=CCc1c2c(c3occ(-c4ccc(OS(C)(=O)=O)c(OS(C)(=O)=O)c4)c(=O)c3c1O)C=CC(C)(C)O2 [DB987]
